Test results reported in US20240254115A1 (ACONDICIONAMIENTO TARRASENSE, priority 2021, published 2024).

Experiments:
human σ1 receptor = target: T1, human σ1 receptor (Homo sapiens, UniProt Q99720); assay: Human σ1 receptor radioligand assay; conditions: transfected HEK-293 membranes, 5 nM [3H](+)-pentazocine, 37° C. 120 minutes; + may also stand for 1-50% inhibition at 1 or 10 μM; read-out: Binding σ-1 Ki
T1 construct: expressed in transfected cells; host or cells: HEK-293
Method: Human σ1 Receptor Radioligand Assay
Transfected HEK-293 membranes (7 μg) were incubated with 5 nM of [^3H](+)-pentazocine in assay buffer containing Tris-HCl 50 mM at pH 8. NBS (non-specific binding) was measured by adding 10 μM haloperidol. The binding of the test compound was measured at either one concentration (% inhibition at 1 or 10 μM) or five different concentrations to determine affinity values (Ki). Plates were incubated at 37° C. for 120 minutes. After the incubation period, the reaction mix was then transferred to MultiScreen HTS, FC plates (Millipore), filtered and plates were washed 3 times with ice-cold 10 mM Tris-HCL (pH7.4). Filters were dried and counted at approximately 40% efficiency in a MicroBeta scintillation counter (Perkin-Elmer) using EcoScint liquid scintillation cocktail.

human σ2/TMEM97 receptor = target: T2, human σ2/TMEM97 receptor (Homo sapiens, UniProt Q5BJF2); assay: Binding assay to human σ2/TMEM97 receptor; conditions: transfected HEK-293 membranes, 10 nM [3H]-DTG, 25° C. 120 minutes; + may also stand for 1-50% inhibition at 1 or 10 μM; read-out: Binding σ-2 Ki
T2 construct: expressed in transfected cells; host or cells: HEK-293
T2 sequence (Q5BJF2 whole entry): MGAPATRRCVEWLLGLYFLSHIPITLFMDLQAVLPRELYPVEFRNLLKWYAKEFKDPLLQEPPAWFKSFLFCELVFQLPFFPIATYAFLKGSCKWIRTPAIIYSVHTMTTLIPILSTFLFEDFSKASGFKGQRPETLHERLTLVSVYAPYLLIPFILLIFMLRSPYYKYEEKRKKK
Method: Binding Assay to Human σ2/TMEM97 Receptor
Transfected HEK-293 membranes (15 μg) were incubated with 10 nM [^3H]-1,3-Di-o-tolylguanidine (DTG) in assay buffer containing Tris-HCl 50 mM at pH 8.0. NSB (non-specific binding) was measured by adding 10 μM haloperidol. The binding of the test compound was measured at either one concentration (% inhibition at 1 or 10 μM) or five different concentrations to determine affinity values (Ki). Plates were incubated at 25° C. for 120 minutes. After the incubation period, the reaction mix was transferred to MultiScreen HTS, FC plates (Millipore), filtered and washed 3 times with ice-cold 10 mM Tris-HCL (pH 8.0). Filters were dried and counted at approximately 40% efficiency in a MicroBeta scintillation counter (Perkin-Elmer) using EcoScint liquid scintillation cocktail.

T1 sequence (Q99720 whole entry): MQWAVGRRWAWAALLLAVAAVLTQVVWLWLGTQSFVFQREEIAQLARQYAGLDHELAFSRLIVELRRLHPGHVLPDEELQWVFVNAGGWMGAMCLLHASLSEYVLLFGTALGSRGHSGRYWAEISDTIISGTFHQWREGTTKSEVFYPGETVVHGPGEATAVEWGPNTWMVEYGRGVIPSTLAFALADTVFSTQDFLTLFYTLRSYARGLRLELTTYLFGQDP

| SMILES | Ki (human σ1 receptor) [nM] | Ki (human σ2/TMEM97 receptor) [nM] |
| --- | --- | --- |
| O=S(=O)(c1ccc(N2CCC(F)(F)CC2)nc1)N1CCC(NCc2ccccc2)CC1 [Example 170] | > 1000 | < 100 |
| CN(Cc1ccccc1)[C@H]1CC[C@@H](NS(=O)(=O)c2ccc(N3CCOCC3)nc2)CC1 [Example 19, N-((1s,4s)-4-(Benzyl(methyl)amino)cyclohexyl)-6-morpholinopyridine-3-sulfonamide] | > 1000 | < 100 |
| CC(C)(C)CN1CCC2(CC1)CCN(S(=O)(=O)c1ccc(N3CCOC3=O)nc1)CC2 [Example 143, 3-(5-((9-Neopentyl-3,9-diazaspiro[5.5]undecan-3-yl)sulfonyl)pyridin-2-yl)oxazolidin-2-one] | > 1000 | < 100 |
| CC(C)(C)CCN1CCC2(CC1)CCN(S(=O)(=O)c1ccc(N3CCC4(CC3)COC4)nc1)CC2 [Example 72, 7-(5-((9-(3,3-Dimethylbutyl)-3,9-diazaspiro[5.5]undecan-3-yl)sulfonyl)pyridin-2-yl)-2-oxa-7-azaspiro[3.5]nonane] | 500 to 1000 | < 100 |
| O=S(=O)(NC1CC2(CCN(Cc3ccccc3)CC2)C1)c1ccc(N2CCOCC2)nc1 [Example 46, N-(7-Benzyl-7-azaspiro[3.5]nonan-2-yl)-6-morpholinopyridine-3-sulfonamide] | > 1000 | 100 to 500 |
| N#Cc1cccc(CN2CC[C@H](NS(=O)(=O)c3ccc(N4CCOCC4)nc3)C2)c1 [Example 42, (S)-N-(1-(3-Cyanobenzyl)pyrrolidin-3-yl)-6-morpholinopyridine-3-sulfonamide] | 500 to 1000 | > 1000 |
| CN(C)c1ccc(S(=O)(=O)N[C@H]2CC[C@H](N(C)Cc3ccccc3)CC2)cn1 [Example 30, N-((1r,4r)-4-(Benzyl (methyl)amino)cyclohexyl)-6-(dimethylamino) pyridine-3-sulfonamide] | 500 to 1000 | 100 to 500 |
| O=S(=O)(c1ccc(N2CCOCC2)nc1)N1CCC2(CCN(Cc3ccccc3)C2)CC1 [Example 13, 4-(5-((2-Benzyl-2,8-diazaspiro[4.5]decan-8-yl)sulfonyl)pyridin-2-yl)morpholine] | > 1000 | 100 to 500 |
| CN(Cc1cc(F)ccc1F)[C@H]1CC[C@H](NS(=O)(=O)c2ccc(N3CCC4(CCOC4)CC3)nc2)CC1 [Example 179, N-((1r,4r)-4-((2,5-Difluoro-benzyl)(methyl)amino)cyclohexyl)-6-(2-oxa-8-azaspiro[4.5]decan-8-yl)pyridine-3-sulfonamide] | > 1000 | < 100 |
| O=S(=O)(c1ccc(N2CCOCC2)nc1)N1CCC2(CCN(Cc3ccccc3)CC2)C1 [Example 45, 4-(5-((8-Benzyl-2,8-diazaspiro[4.5]decan-2-yl)sulfonyl)pyridin-2-yl)morpholine] | 500 to 1000 | 100 to 500 |
| CC(C)(C)CN1CCCC2(CCN(S(=O)(=O)c3ccc(N4CCOC4=O)nc3)CC2)C1 [Example 150, 3-(5-((2-Neopentyl-2,9-diazaspiro[5.5]undecan-9-yl)sulfonyl)pyridin-2-yl)oxazolidin-2-one] | 500 to 1000 | > 1000 |
| N#Cc1cc(CN2CCC3(CC2)CCN(S(=O)(=O)c2ccc(N4CCOC4=O)nc2)C3)ccc1F [Example 165, 2-Fluoro-5-((2-((6-(2-oxooxazolidin-3-yl)pyridin-3-yl)sulfonyl)-2,8-diazaspiro[4.5]decan-8-yl)methyl)benzonitrile] | > 1000 | 100 to 500 |
| CC(C)(C)CCN1CCC2(CC1)CCN(S(=O)(=O)c1ccc(-c3ccncc3)nc1)CC2 [Example 113, 3-([2,4′-Bipyridin]-5-ylsulfonyl)-9-(3,3-dimethylbutyl)-3,9-diazaspiro[5.5]undecane] | 100 to 500 | < 100 |

Now from value to compound:

| Ki (human σ1 receptor) [nM] | Ki (human σ2/TMEM97 receptor) [nM] | SMILES |
| --- | --- | --- |
| < 100 | < 100 | CC(C)CCN1CCC2(CC1)CCN(S(=O)(=O)c1ccc(C(F)(F)F)nc1)CC2 [Example 93, 3-Isopentyl-9-((6-(trifluoromethyl)pyridin-3-yl)sulfonyl)-3,9-diazaspiro[5.5]undecane] |
| < 100 | > 1000 | O=S(=O)(NC1CCN(Cc2ccc(F)cc2)CC1)c1ccc(N2CCOCC2)nc1 [Example 7, N-(1-(4-Fluorobenzyl)piperidin-4-yl)-6-morpholinopyridine-3-sulfonamide] |
| 100 to 500 | 100 to 500 | O=C1OCCN1c1ccc(S(=O)(=O)N2CCC3(CCN(Cc4ccccc4)CC3)C2)cn1 [Example 144, 3-(5-((8-Benzyl-2,8-diazaspiro[4.5]decan-2-yl)sulfonyl)pyridin-2-yl)oxazolidin-2-one] |
| < 100 | < 100 | O=S(=O)(c1ccc(N2CCC(F)(F)CC2)nc1)N1CCCC2(CCN(Cc3ccccc3)CC2)C1 [Example 130, 9-Benzyl-2-((6-(4,4-difluoropiperidin-1-yl)pyridin-3-yl)sulfonyl)-2,9-diazaspiro[5.5]undecane] |
| 100 to 500 | < 100 | CC(C)(C)CCN1CCC2(CC1)CCN(S(=O)(=O)c1ccc(N3CCCC3=O)nc1)CC2 [Example 133, 1-(5-((9-(3,3-Dimethylbutyl)-3,9-diazaspiro[5.5]undecan-3-yl)sulfonyl)pyridin-2-yl)pyrrolidin-2-one] |
| 100 to 500 | < 100 | CN(Cc1ccccc1)[C@H]1CC[C@H](NS(=O)(=O)c2ccc(N3CCCOCC3)nc2)CC1 [Example 32, N-((1r,4r)-4-(Benzyl(methyl)amino)cyclohexyl)-6-(1,4-oxazepan-4-yl) pyridine-3-sulfonamide] |
| 100 to 500 | < 100 | CC(=O)Nc1ccc(S(=O)(=O)N2CCCC3(CCN(CCC(C)(C)C)CC3)C2)cn1 [Example 107, N-(5-((9-(3,3-Dimethylbutyl)-2,9-diazaspiro[5.5]undecan-2-yl)sulfonyl)pyridin-2-yl)acetamide] |
| < 100 | 500 to 1000 | CC(C)(C)CN1CCCC2(CCN(S(=O)(=O)c3ccc(N4CCC(F)(F)CC4)nc3)CC2)C1 [Example 85, 9-((6-(4,4-Difluoropiperidin-1-yl)pyridin-3-yl)sulfonyl)-2-neopentyl-2,9-diazaspiro[5.5]undecane] |
| 100 to 500 | < 100 | CC(C)(C)CCN1CCC2(CC1)CCN(S(=O)(=O)c1cnc(N3CCOC3=O)c(F)c1)CC2 [Example 140, 3-(5-((9-(3,3-Dimethylbutyl)-3,9-diazaspiro[5.5]undecan-3-yl)sulfonyl)-3-fluoropyridin-2-yl)oxazolidin-2-one] |
| < 100 | < 100 | CC(C)(C)CCN1CCCC2(CCN(S(=O)(=O)c3ccc(-c4ccncc4)nc3)CC2)C1 [Example 115, 9-([2,4′-Bipyridin]-5-ylsulfonyl)-2-(3,3-dimethylbutyl)-2,9-diazaspiro[5.5]undecane] |
| 100 to 500 | 100 to 500 | N#Cc1ccc(CN2CCC3(CC2)CCN(S(=O)(=O)c2ccc(N4CCOC4=O)nc2)C3)cc1F [Example 164, 2-Fluoro-4-((2-((6-(2-oxooxazolidin-3-yl)pyridin-3-yl)sulfonyl)-2,8-diazaspiro[4.5]decan-8-yl)methyl)benzonitrile] |
| 100 to 500 | < 100 | CNc1ccc(S(=O)(=O)N2CCCC3(CCN(CCC(C)(C)C)CC3)C2)cn1 [Example 94, 5-((9-(3,3-Dimethylbutyl)-2,9-diazaspiro[5.5]undecan-2-yl)sulfonyl)-N-methylpyridin-2-amine] |
| < 100 | < 100 | CC(C)(C)CCN1CCC2(CCCN(S(=O)(=O)c3ccc(N4CCC5(CCCO5)CC4)nc3)C2)CC1 [Example 98, 8-(5-((9-(3,3-Dimethylbutyl)-2,9-diazaspiro[5.5]undecan-2-yl)sulfonyl)pyridin-2-yl)-1-oxa-8-azaspiro[4.5]decane] |
| < 100 | < 100 | CC(C)(C)CCN1CCC2(CCCN(S(=O)(=O)c3ccc(-c4ccncc4)nc3)C2)CC1 [Example 112, 2-([2,4′-Bipyridin]-5-ylsulfonyl)-9-(3,3-dimethylbutyl)-2,9-diazaspiro[5.5]undecane] |
| 100 to 500 | < 100 | CC(C)OCCN1CCC2(CC1)CCN(S(=O)(=O)c1ccc(C(F)(F)F)nc1)CC2 [Example 90, 3-(2-Isopropoxyethyl)-9-((6-(trifluoromethyl)pyridin-3-yl)sulfonyl)-3,9-diazaspiro[5.5]undecane] |
| 100 to 500 | < 100 | CC(C)(C)CCN1CCC2(CC1)CCN(S(=O)(=O)c1ccc(N3CCOCC3=O)nc1)CC2 [Example 131, 4-(5-((9-(3,3-Dimethylbutyl)-3,9-diazaspiro[5.5]undecan-3-yl)sulfonyl)pyridin-2-yl)morpholin-3-one] |
| < 100 | < 100 | CC(C)(C)CCN1CCC2(CCCN(S(=O)(=O)c3ccc(N4CCCC4=O)nc3)C2)CC1 [Example 121, 1-(5-((9-(3,3-Dimethylbutyl)-2,9-diazaspiro[5.5]undecan-2-yl)sulfonyl)pyridin-2-yl)pyrrolidin-2-one] |
